In ChEMBL document CHEMBL1201862, “PubChem BioAssay data set” (2004):
The source made the active and inactive calls.

Key:
[1] = molecular target: T1, Small ubiquitin-related modifier 1 (Homo sapiens, UniProt P63165); test: inhibitors of SUMO1 peptide binding, dose response, biochemical, fluorescence polarization, uHTS hits (AID 624382); assay type: functional; conditions: read-out: IC50_Mean
[2] = molecular target: DNA dC->dU-editing enzyme APOBEC-3G (Homo sapiens, UniProt Q9HC16); test: Dose Response confirmation of small molecule APOBEC3G DNA Deaminase Inhibitors via a fluorescence-based single-stranded DNA deaminase assay. [Related pubchem assays (depositor defined):AID493012, AID493028]; assay type: functional
Chain of DNA dC->dU-editing enzyme APOBEC-3G (Q9HC16 whole entry): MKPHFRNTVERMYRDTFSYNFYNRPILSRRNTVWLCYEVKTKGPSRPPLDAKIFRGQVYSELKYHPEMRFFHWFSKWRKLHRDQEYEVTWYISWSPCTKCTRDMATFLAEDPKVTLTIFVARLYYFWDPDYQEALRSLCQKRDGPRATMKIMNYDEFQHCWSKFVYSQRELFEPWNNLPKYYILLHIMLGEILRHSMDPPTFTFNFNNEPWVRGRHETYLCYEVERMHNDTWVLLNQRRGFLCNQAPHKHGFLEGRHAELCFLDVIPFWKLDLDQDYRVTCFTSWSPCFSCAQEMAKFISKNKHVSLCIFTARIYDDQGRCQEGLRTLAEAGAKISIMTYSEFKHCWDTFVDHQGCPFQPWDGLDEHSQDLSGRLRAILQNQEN

[3] = molecular target: T1, Small ubiquitin-related modifier 1; test: inhibitors of SUMO1 partner interactions, dose response, biochemical, FRET (AID 624383); assay type: functional; conditions: read-out: IC50_Mean
[4] = molecular target: DNA dC->dU-editing enzyme APOBEC-3A (Homo sapiens, UniProt P31941); test: APOBEC3A DNA deaminase inhibitors, dose response, biochemical (AID 504722); assay type: functional
Chain of DNA dC->dU-editing enzyme APOBEC-3A (P31941 whole entry): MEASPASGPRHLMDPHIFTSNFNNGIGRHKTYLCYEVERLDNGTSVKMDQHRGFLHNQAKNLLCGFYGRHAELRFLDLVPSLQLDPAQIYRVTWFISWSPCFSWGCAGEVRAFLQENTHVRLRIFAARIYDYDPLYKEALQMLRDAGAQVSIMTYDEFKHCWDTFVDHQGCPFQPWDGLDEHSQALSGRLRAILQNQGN

[5] = molecular target: T2, Apoptotic protease-activating factor 1 (Homo sapiens, UniProt O14727); test: activation of Apaf-1 mediated apoptosis – fluorescent, uHTS hits, dose response (AID 588554); assay type: functional
T2 sequence (O14727 whole entry): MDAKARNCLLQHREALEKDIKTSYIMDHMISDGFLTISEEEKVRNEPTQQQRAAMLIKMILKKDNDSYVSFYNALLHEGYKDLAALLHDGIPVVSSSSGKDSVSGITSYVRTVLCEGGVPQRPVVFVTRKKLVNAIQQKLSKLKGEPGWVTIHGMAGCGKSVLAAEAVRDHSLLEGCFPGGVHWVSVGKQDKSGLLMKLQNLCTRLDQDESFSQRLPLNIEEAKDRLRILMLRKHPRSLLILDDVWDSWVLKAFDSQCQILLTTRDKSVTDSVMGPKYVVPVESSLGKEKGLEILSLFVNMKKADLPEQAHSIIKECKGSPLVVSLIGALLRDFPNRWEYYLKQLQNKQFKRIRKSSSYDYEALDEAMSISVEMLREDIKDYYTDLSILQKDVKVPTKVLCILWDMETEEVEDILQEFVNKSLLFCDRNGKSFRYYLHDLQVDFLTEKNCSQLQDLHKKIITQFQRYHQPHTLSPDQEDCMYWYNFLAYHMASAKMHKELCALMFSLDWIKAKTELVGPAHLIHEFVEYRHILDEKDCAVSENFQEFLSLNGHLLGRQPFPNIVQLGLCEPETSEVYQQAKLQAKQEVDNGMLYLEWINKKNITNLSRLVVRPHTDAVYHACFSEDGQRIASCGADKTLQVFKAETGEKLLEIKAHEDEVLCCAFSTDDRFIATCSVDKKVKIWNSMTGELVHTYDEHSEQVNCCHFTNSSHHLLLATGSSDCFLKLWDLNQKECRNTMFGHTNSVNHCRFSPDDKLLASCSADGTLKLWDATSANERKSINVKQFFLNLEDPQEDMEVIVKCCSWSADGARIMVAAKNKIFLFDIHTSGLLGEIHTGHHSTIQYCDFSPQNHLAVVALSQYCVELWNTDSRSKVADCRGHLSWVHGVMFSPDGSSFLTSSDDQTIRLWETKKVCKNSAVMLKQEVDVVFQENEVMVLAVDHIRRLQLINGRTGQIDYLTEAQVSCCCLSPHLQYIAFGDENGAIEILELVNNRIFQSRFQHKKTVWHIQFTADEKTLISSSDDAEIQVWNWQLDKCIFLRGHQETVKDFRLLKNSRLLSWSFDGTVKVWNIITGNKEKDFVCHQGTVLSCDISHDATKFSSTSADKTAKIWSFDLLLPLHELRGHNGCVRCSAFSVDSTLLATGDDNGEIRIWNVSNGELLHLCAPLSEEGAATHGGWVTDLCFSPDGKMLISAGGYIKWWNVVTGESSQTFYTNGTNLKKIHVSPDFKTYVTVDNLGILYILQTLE

[6] = molecular target: Dual specificity protein kinase CLK1 (Homo sapiens, UniProt P49759); test: CLK1 kinase inhibitors, off-target check, dose response, selectivity assay for Dyrk1A inhibitor project, biochemical, cherry-picked samples (AID 588811)
Chain of Dual specificity protein kinase CLK1 (P49759 whole entry): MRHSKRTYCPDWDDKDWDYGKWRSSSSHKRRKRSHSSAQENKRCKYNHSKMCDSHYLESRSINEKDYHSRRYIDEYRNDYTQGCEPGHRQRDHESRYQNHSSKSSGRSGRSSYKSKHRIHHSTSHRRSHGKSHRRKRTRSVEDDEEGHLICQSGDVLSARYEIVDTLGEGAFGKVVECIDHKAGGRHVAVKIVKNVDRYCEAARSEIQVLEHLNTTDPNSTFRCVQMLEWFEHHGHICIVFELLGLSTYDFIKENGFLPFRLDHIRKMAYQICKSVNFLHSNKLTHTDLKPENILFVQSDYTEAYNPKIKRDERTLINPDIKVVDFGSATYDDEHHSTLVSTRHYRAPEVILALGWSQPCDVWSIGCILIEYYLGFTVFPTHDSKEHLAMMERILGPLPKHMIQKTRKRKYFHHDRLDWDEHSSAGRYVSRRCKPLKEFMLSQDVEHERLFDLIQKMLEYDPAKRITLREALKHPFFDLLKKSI

[7] = cytotoxicity in NIH/3T3 mouse fibroblasts, dose response, cytotoxicity control, cell-based, mouse embryonic fibroblasts, dry powder, set 2 (AID 493247); assay type: functional; conditions: Fibroblast
Trypanosoma cruzi = test: growth inhibition of intracellular Trypanosoma cruzi, dose response, cell-based, plate reader, dry powder, set 3 (AID 493197); assay type: functional
[8] = inhibitors of Trypanosoma cruzi host-cell infection, confirmation, beta-gal luminescence, NIH3T3 host cells (AID 2630); assay type: functional, cell-based; conditions: Mus musculus

T1 sequence (P63165 whole entry): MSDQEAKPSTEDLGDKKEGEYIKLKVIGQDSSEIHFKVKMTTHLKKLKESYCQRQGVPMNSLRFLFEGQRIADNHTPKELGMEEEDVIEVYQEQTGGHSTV

**Q.** What does the source list for `C=C(C)C(=O)Nc1cccc(C2=NOC3(C2)C[C@H](C(N)=O)N(C(=O)c2ccccc2C(=O)c2ccccc2)C3)c1` (some centres undefined)?
**A.** IC50 [1]: > 66.6 µM (inactive); IC50 [2]: 8.19 µM (active); IC50 [3]: 2.73 µM (active); IC50 [4]: > 100 µM (inactive); EC50 [5]: 3.71 µM (active)

**Q.** Which AC50 [6] does the source give for `CN(Cc1nccs1)c1ncnc2ccc(-c3ccc4c(c3)OCO4)cc12` here?
**A.** < 0.00195 µM (active)

**Q.** What does the source list for `COc1ccccc1CN1CCCC(C(=O)N(C)Cc2ccccc2)C1` (centres undefined)?
**A.** AC50 [7]: 73.3 µM (active); AC50 (Trypanosoma cruzi): 10.8 µM (active); EC50 [8]: 0.856 µM (active)
